From US20240343729A1 (priority 2021, published 2024)

Columns and labels:
[1] = tested on: other PDE family members; conditions: literature value; read-out: IC50s for other PDE family members; cited from earlier work
[2] = tested on: inflamed colonic mucosa from ulcerative colitis patients; assay: Ex-vivo culture of colon biopsies from ulcerative colitis patients, cytokine release (Protocol 1); type: cell-based, human; conditions: UC colon biopsies, two patients; PF-02545920 0.1 μM and 1 μM, TAK-063 1 uM; 24 h; compared to DMSO vehicle
Experimental: The effect of selective PDE10A inhibition was tested on inflamed colonic mucosa from ulcerative colitis patients taken during routine endoscopy (Protocol 1 detailed below). These samples retain a disease phenotype in ex-vivo culture, secrete high basal levels of inflammatory cytokines, and represent a highly relevant and translational disease model. The effect of the PDE10A inhibitors on levels of the inflammatory cytokines IL-6 and IL-8 released from these tissue samples were measured. Both IL-6 and IL-8 are key regulators in ulcerative colitis pathology and their levels correlate with disease severity (Waldner M J et al. Master regulator of intestinal disease: IL-6 in chronic inflammation and cancer development. Semin Immunol. 26(1), 75-9 (2014); Bernardo D et al. IL-6 promotes immune responses in human ulcerative colitis and induces a skin-homing phenotype in the dendritic cells and T-cells they stimulate. Eur J Immunol. 42(5), 1337-53 (2012); Pearl D S, Cytokine mucosal expression in ulcerative colitis, the relationship between cytokine release and disease activity. J Crohns Colitis. 7(6), 481-9 (2013)).
These colon biopsies retain an inflammatory phenotype and secrete high levels of inflammatory cytokines in ex-vivo culture.
Biopsy tissue was obtained from inflamed colonic mucosa from ulcerative colitis or Crohn's disease patients during routine endoscopy. […] Biopsies were incubated in organ culture for 24 h with the addition of positive control compounds, or specific PDE10A inhibitors. Supernatants collected at the end of the experiment were snap-frozen and stored at −70° C. For the measurement of cytokines, the frozen culture supernatants were thawed and analysed for levels of the inflammatory cytokines using Luminex cytokine assay kits (R&D Systems) and an R&D Systems MAGPIX® analyser. Mean values±SDs were calculated for the levels of spontaneous cytokine production measured in biopsy culture supernatants from each treatment group.

[3] = tested on: inflamed colonic mucosa from Crohn's Disease patients; assay: Ex-vivo culture of colon biopsies from Crohn's disease patients, cytokine release (Protocol 1); type: cell-based, human; conditions: 0.1 uM; 2 independent CD patient biopsies; compared to DMSO vehicle
Experimental: In addition, we tested the effect of selective PDE10A inhibition using 0.1 uM PF-2545920 on inflamed colonic mucosa from Crohn's Disease patients taken during routine endoscopy (Protocol 1).
Biopsy tissue was obtained from inflamed colonic mucosa from ulcerative colitis or Crohn's disease patients during routine endoscopy. Ex-vivo biopsy cultures for the analysis of inflammatory cytokine biomarkers were run as previously described (Vossenksmper A. et al. A CD3-specific antibody reduces cytokine production and alters phosphoprotein profiles in intestinal tissues from patients with inflammatory bowel disease. Gastroenterology, 147, 172-183 (2014)). Biopsies were incubated in organ culture for 24 h with the addition of positive control compounds, or specific PDE10A inhibitors. Supernatants collected at the end of the experiment were snap-frozen and stored at −70° C. For the measurement of cytokines, the frozen culture supernatants were thawed and analysed for levels of the inflammatory cytokines using Luminex cytokine assay kits (R&D Systems) and an R&D Systems MAGPIX® analyser. Mean values±SDs were calculated for the levels of spontaneous cytokine production measured in biopsy culture supernatants from each treatment group.

[4] = tested on: inflamed colonic mucosa from pharmacotherapy treatment-refractory ulcerative colitis patients; assay: Ex-vivo culture of resected colon tissue from treatment-refractory ulcerative colitis patients, TNFα release (Protocol 2); type: cell-based, human; conditions: 1 μM; two UC patients; SEB present; about 18 hours; compared to DMSO vehicle
[5] = tested on: isolated human neutrophil; assay: In vitro assay of IL-8 neutrophil activation; type: cell-based
[6] = biological target: T1, Human PDE10A2 (Homo sapiens (Human), UniProt Q9Y233); assay: biochemical; type: biochemical; conditions: human PDE10A2 0.25 nM, cGMP 3 μM
T1 sequence (Q9Y233 267-1055): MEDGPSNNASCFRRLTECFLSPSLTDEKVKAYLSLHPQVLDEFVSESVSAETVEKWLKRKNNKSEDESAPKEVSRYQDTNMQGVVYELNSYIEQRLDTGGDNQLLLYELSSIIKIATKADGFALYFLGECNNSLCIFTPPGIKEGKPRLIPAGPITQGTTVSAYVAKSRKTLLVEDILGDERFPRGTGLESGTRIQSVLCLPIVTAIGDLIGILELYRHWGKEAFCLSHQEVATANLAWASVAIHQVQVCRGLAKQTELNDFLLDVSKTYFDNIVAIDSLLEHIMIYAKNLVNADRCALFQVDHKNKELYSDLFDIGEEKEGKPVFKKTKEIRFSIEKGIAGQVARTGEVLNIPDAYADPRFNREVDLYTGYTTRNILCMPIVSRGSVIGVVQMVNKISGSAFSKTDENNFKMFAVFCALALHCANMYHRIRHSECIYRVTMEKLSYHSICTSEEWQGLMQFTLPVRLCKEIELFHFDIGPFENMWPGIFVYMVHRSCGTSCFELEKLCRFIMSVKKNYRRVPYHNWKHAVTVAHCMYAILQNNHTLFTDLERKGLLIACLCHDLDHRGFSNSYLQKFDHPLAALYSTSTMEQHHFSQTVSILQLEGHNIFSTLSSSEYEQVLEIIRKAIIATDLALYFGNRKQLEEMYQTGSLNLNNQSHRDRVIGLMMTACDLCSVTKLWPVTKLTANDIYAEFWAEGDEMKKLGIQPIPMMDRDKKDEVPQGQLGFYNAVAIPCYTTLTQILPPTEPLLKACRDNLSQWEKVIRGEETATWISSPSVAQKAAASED
Experimental: Semi Log compound dilutions starting at a final concentration of 50 μM were dispensed into a black 384 well plate alongside, DMSO and an Inhibited control using the Echo Acoustic dispenser. […] Data was analysed using a 4-parameter fit.

[7] = biological target: T1, Human PDE10A2; assay: cell-based; conditions: Forskolin 10 μM; read-out: cAMP HTRF Assay in HEK 293 rhPDE10A2 cell line (pIC50) (converted)
Experimental: Semi log compound dilutions starting at a final concentration of 10 μM were dispensed into a white 384 well plate, alongside DMSO and an Inhibited control using the Tecan D300e digital dispenser. HEK 293 cells overexpressing recombinant human PDE10A2 were seeded on top of the compounds at 2500 cells/well in a volume 5 μL/well. The plate was incubated at room temperature for 60 minutes. To induce endogenous cAMP, 5 μL/well of Forskolin at a final assay concentration of 10 μM was added to the plate. The plate was incubated at room temperature for a further 45 minutes. cAMP HTRF detection reagents were added, and the plate was incubated for 60 minutes at room temperature. […] Data was analysed using a 4-parameter fit.

Row | Structure (SMILES) | PDE10A2 Phosphate Sensor Enzyme Assay (pIC50) [6] | IC50 [7] | further results
1 | Cn1cc(-c2ccncc2)c(-c2ccc(OCc3ccc4ccccc4n3)cc2)n1 [PF-02545920] | – | – | IC50 [1]: > 1000 nM; secreted levels of IL-6 [2]: significantly reduced; secreted levels of IL-8 [2]: significantly reduced; secreted levels of IL-6 [3]: significantly reduced; secreted levels of IL-8 [3]: significantly reduced; secreted levels of TNFα [4]: significantly reduced; IL-8 induced neutrophil activation [5]: dose dependently inhibited
2 | Cn1cc(-c2ccccc2)nc1C#Cc1nc(N2CC3(COC3)C2)c2cnn(CC3CNC3)c2n1 [Example 8, 6-[1-(Azetidin-3-ylmethyl)-6-[2-(1-methyl-4-phenyl-imidazol-2-yl)ethynyl]pyrazolo[3,4-d]pyrimidin-4-yl]-2-oxa-6-azaspiro[3.3]heptane] | 8.45 | 5.75 nM | –
3 | C[C@@H]1COCCN1c1nc(C#Cc2nc(-c3ccccc3)c[nH]2)nc2c1ncn2C [Example 29, (R)-3-Methyl-4-(9-methyl-2-((4-phenyl-1H-imidazol-2-yl)ethynyl)-9H-purin-6-yl)morpholine] | 9.92 | 3.47 nM | –
4 | Cn1cnc2c(N3CC4(COC4)C3)nc(C#Cc3nc(-c4ccccc4)c[nH]3)nc21 [Example 7, 6-[9-Methyl-2-[2-(4-phenyl-1H-imidazol-2-yl)ethynyl]purin-6-yl]-2-oxa-6-azaspiro[3.3]heptane] | 9.22 | 2.95 nM | –
5 | Cn1cc(-c2cccnc2)nc1C#Cc1nc(N2CC3(COC3)C2)c2ncn(C)c2n1 [Example 2, 6-[9-Methyl-2-[2-[1-methyl-4-(3-pyridyl)imidazol-2-yl]ethynyl]purin-6-yl]-2-oxa-6-azaspiro[3.3]heptane] | 8.62 | 1.55 nM | –
6 | Cn1cc(-c2ccccc2)nc1C#Cc1nc2c(c(N3CCOCC3)n1)CCNC2 [Example 11, 4-[2-[2-(1-Methyl-4-phenyl-imidazol-2-yl)ethynyl]-5,6,7,8-tetrahydropyrido[3,4-d]pyrimidin-4-yl]morpholine] | 9.80 | 1.86 nM | –
7 | Cn1ncc2c(N3C[C@H]4COC[C@H]4C3)nc(C#Cc3nc(-c4ccccc4)c[nH]3)nc21 [Example 9, (3aS,6aR)-5-[1-methyl-6-[2-(4-phenyl-1H-imidazol-2-yl)ethynyl]pyrazolo[3,4-d]pyrimidin-4-yl]-1,3,3a,4,6,6a-hexahydrofuro[3,4-c]pyrrole] | – | 0.603 nM | IC50 ([6]; read-out: PDE10A2 Phosphate Sensor Enzyme Assay (pIC50) (converted)): 0.0251 nM
8 | Cn1cc(-c2ccccc2)nc1C#Cc1nc(N2CC3(COC3)C2)c2cnn(C)c2n1 [Example 3, 6-[1-Methyl-6-[2-(1-methyl-4-phenyl-imidazol-2-yl)ethynyl]pyrazolo[3,4-d]pyrimidin-4-yl]-2-oxa-6-azaspiro[3.3]heptane] | 9.99 | 0.275 nM | –
9 | Cn1cnc2c(N3C[C@H]4COC[C@H]4C3)nc(C#Cc3nc(-c4ccccc4)c[nH]3)nc21 [Example 28, (3aR,6aS)-5-(9-Methyl-2-((4-phenyl-1H-imidazol-2-yl)ethynyl)-9H-purin-6-yl)hexahydro-1H-furo[3,4-c]pyrrole] | 9.34 | 33.9 nM | –
10 | CN(C)CCOc1cccc(-c2c[nH]c(C#Cc3nc(N4C[C@H]5COC[C@H]5C4)c4cnn(C)c4n3)n2)c1 [Example 10, 2-[3-[2-[2-[4-[(3aS,6aR)-1,3,3a,4,6,6a-Hexahydrofuro[3,4-c]pyrrol-5-yl]-1-methyl-pyrazolo[3,4-d]pyrimidin-6-yl]ethynyl]-1H-imidazol-4-yl]phenoxy]-N,N-dimethyl-ethanamine] | 10.4 | 0.661 nM | –
11 | Cn1cc(-c2ccccc2)nc1C#Cc1nc2c(c(N3CCOCC3)n1)CCN(CC1CC1)C2 [Example 15, 4-[7-(Cyclopropylmethyl)-2-[2-(1-methyl-4-phenyl-imidazol-2-yl)ethynyl]-6,8-dihydro-5H-pyrido[3,4-d]pyrimidin-4-yl]morpholine] | 8.72 | 562 nM | –
12 | C[C@H]1COCCN1c1nc(C#Cc2nc(-c3cccnc3)c[nH]2)nc2c1ncn2C [Example 33, (S)-3-Methyl-4-(9-methyl-2-((4-(pyridin-3-yl)-1H-imidazol-2-yl)ethynyl)-9H-purin-6-yl)morpholine] | 8.68 | 17.4 nM | –
13 | Cn1cnc2c(N3CC4(COC4)C3)nc(C#Cc3nc(-c4ccccc4)cn3CCN3CCOCC3)nc21 [Example 5, 6-[9-Methyl-2-[2-[1-(2-morpholinoethyl)-4-phenyl-imidazol-2-yl]ethynyl]purin-6-yl]-2-oxa-6-azaspiro[3.3]heptane] | 9.37 | 0.427 nM | –
14 | COc1cn(-c2ccc(-n3cccn3)cc2F)nc(-c2ccnn2-c2ccccc2)c1=O [TAK-063, 1-[2-fluoro-4-(1H-pyrazol-1-yl)phenyl]-5-methoxy-3-(1-phenyl-1H-pyrazol-5-yl)pyridazin-4(1H)-one] | – | – | IC50 [1]: > 5000 nM; secreted levels of IL-6 [2]: significantly reduced; secreted levels of IL-8 [2]: significantly reduced
15 | Cn1cc(-c2ccccc2)nc1C#Cc1nc(N2C[C@H]3COC[C@H]3C2)c2cnn(C)c2n1 [Example 23, (3aR,6aS)-5-(1-Methyl-6-((1-methyl-4-phenyl-1H-imidazol-2-yl)ethynyl)-1H-pyrazolo[3,4-d]pyrimidin-4-yl)hexahydro-1H-furo[3,4-c]pyrrole] | 10.40 | 0.245 nM | –
